pIC50: −log10 of the molar value. ≈ marks a conversion by molar mass, not a printed value.
What was measured:
[1] = target: T1, Diacylglycerol O-acyltransferase 1 (Homo sapiens, UniProt O75907); experiment: Inhibition of human DGAT1 expressed in yeast membrane fraction assessed as inhibition of triglyceride formation using diolein/oleoyl-CoA as substrate measured after 1 hr by 7-diethylamino-3-(4'-maleimidylphenyl)-4-methylcoumarin based fluorescence analysis; type: cell membranes
T1 sequence (O75907 whole entry): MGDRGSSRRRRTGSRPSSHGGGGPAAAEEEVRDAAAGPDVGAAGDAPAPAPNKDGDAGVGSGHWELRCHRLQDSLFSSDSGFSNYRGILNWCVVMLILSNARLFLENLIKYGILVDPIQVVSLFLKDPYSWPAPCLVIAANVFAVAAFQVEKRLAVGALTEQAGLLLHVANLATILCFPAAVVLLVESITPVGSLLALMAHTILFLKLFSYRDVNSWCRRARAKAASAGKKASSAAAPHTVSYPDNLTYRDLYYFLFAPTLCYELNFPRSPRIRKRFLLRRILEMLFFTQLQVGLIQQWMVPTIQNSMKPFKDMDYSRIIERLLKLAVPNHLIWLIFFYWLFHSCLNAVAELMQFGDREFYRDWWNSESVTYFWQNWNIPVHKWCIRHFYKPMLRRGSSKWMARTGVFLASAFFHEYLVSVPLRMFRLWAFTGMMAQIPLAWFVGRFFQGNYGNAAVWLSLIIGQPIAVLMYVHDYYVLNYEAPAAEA

Cytochrome P450 2C9 = Cytochrome P450 2C9 (Homo sapiens, UniProt P11712); experiment: Inhibition of CYP2C9 (unknown origin); type: ADME
[2] = Solubility of the compound at pH 2; type: physicochemical; conditions: buffer
Cytochrome P450 3A4 = Cytochrome P450 3A4 (Homo sapiens, UniProt P08684); experiment: Inhibition of CYP3A4 (unknown origin); type: ADME
[3] = target: T2, Nuclear receptor subfamily 1 group I member 2 (Homo sapiens, UniProt O75469); experiment: Inhibition of PXR (unknown origin); type: ADME
T2 sequence (O75469 whole entry): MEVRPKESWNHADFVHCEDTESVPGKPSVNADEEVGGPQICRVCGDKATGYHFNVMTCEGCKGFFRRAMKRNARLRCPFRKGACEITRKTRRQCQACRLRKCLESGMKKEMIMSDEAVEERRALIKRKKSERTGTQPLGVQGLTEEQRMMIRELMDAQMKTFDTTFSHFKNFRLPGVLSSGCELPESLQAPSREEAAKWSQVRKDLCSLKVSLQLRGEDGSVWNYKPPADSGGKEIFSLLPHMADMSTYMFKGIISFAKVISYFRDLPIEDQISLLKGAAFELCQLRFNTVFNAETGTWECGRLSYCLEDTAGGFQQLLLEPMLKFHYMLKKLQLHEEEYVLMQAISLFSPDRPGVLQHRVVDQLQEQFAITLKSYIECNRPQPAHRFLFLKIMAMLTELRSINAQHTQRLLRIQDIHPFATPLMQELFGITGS

[4] = Lipophilicity, log D of the compound; type: physicochemical; conditions: octanol/water
Mus musculus [5] = experiment: Reduction in triglyceride level in mouse plasma at 10 mg/kg,po after 18 hrs by lipid tolerance test; type: functional
Mus musculus [6] = experiment: Reduction in triglyceride level in mouse plasma at 30 mg/kg, po after 18 hrs by lipid tolerance test; type: functional
[7] = Solubility of the compound at pH 7; type: physicochemical; conditions: buffer
[8] = target: Voltage-gated inwardly rectifying potassium channel KCNH2 (Homo sapiens, UniProt Q12809); experiment: Inhibition of MK499 binding to human ERG
Rattus norvegicus = experiment: Intrinsic clearance Wistar Han rat at 1 mg/kg, iv; type: ADME, organism-based; conditions: in vivo
[9] = target: T3, Diacylglycerol O-acyltransferase 1 (Mus musculus, UniProt Q9Z2A7); experiment: Inhibition of mouse DGAT1 assessed as inhibition of triglyceride formation
T3 sequence (Q9Z2A7 whole entry): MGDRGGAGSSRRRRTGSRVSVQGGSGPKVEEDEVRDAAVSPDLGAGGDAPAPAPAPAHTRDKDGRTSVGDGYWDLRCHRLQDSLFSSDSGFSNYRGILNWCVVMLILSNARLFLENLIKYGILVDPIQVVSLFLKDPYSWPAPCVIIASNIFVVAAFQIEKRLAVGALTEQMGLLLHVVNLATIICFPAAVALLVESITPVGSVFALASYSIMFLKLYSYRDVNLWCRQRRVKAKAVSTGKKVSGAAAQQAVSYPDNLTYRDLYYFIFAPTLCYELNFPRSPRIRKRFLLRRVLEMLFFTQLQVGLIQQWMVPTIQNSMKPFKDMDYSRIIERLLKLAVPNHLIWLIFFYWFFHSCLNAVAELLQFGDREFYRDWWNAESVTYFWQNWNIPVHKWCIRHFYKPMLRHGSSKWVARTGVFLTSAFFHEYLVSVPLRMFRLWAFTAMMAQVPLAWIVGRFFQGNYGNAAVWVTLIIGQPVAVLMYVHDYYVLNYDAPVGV

Sequence of Cytochrome P450 3A4 (P08684 whole entry): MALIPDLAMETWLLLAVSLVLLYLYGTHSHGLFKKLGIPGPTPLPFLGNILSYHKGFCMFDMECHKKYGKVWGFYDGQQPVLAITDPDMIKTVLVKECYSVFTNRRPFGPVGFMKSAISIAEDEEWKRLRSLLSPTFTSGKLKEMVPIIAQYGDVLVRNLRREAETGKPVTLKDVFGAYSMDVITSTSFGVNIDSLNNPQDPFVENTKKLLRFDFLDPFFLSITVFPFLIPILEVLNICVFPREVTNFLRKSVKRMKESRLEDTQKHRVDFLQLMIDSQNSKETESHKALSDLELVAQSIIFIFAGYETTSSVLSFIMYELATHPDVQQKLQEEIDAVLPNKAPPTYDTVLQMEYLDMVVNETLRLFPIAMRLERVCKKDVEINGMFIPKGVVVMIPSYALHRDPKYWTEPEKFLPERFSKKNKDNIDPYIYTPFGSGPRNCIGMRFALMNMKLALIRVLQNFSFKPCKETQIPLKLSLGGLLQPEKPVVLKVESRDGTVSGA
Sequence of Cytochrome P450 2C9 (P11712 whole entry): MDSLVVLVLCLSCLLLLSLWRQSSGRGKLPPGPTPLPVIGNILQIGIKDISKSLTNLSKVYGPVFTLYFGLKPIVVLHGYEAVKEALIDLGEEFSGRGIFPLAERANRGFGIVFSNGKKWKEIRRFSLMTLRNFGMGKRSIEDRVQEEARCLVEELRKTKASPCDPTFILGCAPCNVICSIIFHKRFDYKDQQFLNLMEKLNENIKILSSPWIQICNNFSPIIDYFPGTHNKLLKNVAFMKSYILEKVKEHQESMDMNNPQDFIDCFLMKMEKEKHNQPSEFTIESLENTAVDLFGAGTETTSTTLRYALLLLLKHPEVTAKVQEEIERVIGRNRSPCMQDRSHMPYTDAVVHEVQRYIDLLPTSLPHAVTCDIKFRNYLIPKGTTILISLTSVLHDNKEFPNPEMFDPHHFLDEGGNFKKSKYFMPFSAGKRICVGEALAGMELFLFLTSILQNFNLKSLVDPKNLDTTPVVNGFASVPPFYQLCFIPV
Sequence of Voltage-gated inwardly rectifying potassium channel KCNH2 (Q12809 whole entry): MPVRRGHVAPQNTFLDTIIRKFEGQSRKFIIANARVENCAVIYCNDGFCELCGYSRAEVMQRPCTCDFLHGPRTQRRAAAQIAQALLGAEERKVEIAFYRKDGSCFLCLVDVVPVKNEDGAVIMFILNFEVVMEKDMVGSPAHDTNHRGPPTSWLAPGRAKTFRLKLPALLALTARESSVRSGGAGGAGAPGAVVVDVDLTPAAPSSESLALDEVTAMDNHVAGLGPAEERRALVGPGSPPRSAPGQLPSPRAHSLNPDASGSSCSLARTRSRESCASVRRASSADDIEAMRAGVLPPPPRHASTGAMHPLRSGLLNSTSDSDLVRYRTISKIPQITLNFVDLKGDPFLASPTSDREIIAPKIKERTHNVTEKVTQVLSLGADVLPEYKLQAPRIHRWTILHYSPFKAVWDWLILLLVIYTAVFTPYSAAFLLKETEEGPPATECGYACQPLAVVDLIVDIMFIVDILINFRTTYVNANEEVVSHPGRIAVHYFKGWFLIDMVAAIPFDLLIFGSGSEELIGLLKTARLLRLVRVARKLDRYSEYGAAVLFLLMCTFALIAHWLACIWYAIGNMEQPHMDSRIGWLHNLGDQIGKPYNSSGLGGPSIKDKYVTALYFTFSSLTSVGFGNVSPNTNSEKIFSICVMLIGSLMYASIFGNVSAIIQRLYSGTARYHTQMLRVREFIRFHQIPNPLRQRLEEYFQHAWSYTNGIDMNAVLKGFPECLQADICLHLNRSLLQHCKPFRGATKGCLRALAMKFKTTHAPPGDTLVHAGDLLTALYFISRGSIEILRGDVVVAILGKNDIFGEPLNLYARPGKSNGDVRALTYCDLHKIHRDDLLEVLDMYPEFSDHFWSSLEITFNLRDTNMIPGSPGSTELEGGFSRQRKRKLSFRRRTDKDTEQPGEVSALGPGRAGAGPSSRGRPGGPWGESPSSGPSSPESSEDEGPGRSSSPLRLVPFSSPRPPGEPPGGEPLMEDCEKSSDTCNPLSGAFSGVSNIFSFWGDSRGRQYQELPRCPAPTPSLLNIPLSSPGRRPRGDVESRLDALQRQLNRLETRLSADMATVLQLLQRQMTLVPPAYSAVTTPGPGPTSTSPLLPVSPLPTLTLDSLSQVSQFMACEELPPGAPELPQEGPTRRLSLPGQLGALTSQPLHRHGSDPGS

| SMILES | pIC50 [1] | pIC50 (Cytochrome P450 2C9) | solubility ([2]; read-out: solubility) [µM] | pIC50 (Cytochrome P450 3A4) | pIC50 [3] | logD ([4]; read-out: logD) | solubility ([7]; read-out: solubility) [µM] | pIC50 [8] | further results |
| --- | --- | --- | --- | --- | --- | --- | --- | --- | --- |
| O=C1OC2(CCN(c3ccc(-c4nc5cc(Cl)ccc5[nH]4)cn3)CC2)c2cnccc21 | 7.18 |  |  |  |  |  |  |  |  |
| FC(F)(F)c1ccc2[nH]c(-c3ccc(N4CCC(c5ccccc5)(c5ccccc5)CC4)nc3)nc2c1 | 5.78 |  |  |  |  |  |  |  |  |
| O=C(O)C[C@@H]1COC2(CCN(c3ccc(-c4nc5cc(C(F)(F)F)ccc5[nH]4)cn3)CC2)C1 |  | < 4.30 | 171 (≈ 78.7 µg/mL) | < 4.30 | < 4.52 | 1.44 | 158 (≈ 72.8 µg/mL) |  | inhibition in vivo at 10 mg/kg (Mus musculus [5]): 32%; inhibition in vivo at 30 mg/kg (Mus musculus [6]): 54% |
| O=C(O)C1CCC2(CCN(c3ccc(-c4nc5cc(C(F)(F)F)ccc5[nH]4)cn3)CC2)CO1 (stereo unspecified) | 6.44 |  | 167 (≈ 76.9 µg/mL) |  |  | 1.54 | 154 (≈ 70.9 µg/mL) |  |  |
| Clc1ccc2[nH]c(-c3ccc(N4C[C@@H]5C[C@H]4CN5c4ccccc4)nc3)nc2c1 | < 5.00 |  |  |  |  |  |  |  |  |
| O=C(O)C1CCC2(CCN(c3ccc(-c4nc5cc(C(F)(F)F)ccc5[nH]4)cn3)CC2)OC1 (stereo unspecified) |  | < 4.30 | 174 (≈ 80.1 µg/mL) | < 4.30 | < 4.52 | 1.52 | 163 (≈ 75.1 µg/mL) | 4.83 |  |
| FC(F)(F)c1ccc2[nH]c(-c3ccc(N4CCC(c5ccccn5)CC4)nc3)nc2c1 | 7.21 |  |  |  |  |  |  |  |  |
| FC(F)(F)c1ccc2[nH]c(-c3ccc(N4CCC5(CC4)OC(Cc4cc(Cl)cc(Cl)c4)c4ccccc45)nc3)nc2c1 (stereo unspecified) | 5.06 |  |  |  |  |  |  |  |  |
| O=C(O)C[C@H]1COC2(CCN(c3ccc(-c4nc5cc(C(F)(F)F)ccc5[nH]4)cn3)CC2)C1 |  | < 4.30 | 170 (≈ 78.3 µg/mL) | < 4.30 | < 4.52 | 1.45 | 153 (≈ 70.4 µg/mL) |  |  |
| O=C1OC2(CCN(c3ccc(-c4nc5cc(Cl)ccc5[nH]4)cn3)CC2)c2ncccc21 | 8.00 | 5.47 | < 10 |  |  |  |  |  |  |
| N#Cc1ccc(N2C(=O)NC3(CCN(c4ccc(-c5nc6cc(C(F)(F)F)ccc6[nH]5)cn4)CC3)C2=O)cc1 | 6.42 |  |  |  |  |  |  |  |  |
| O=C1OC2(CCN(c3ccc(-c4nc5cc(Cl)ccc5[nH]4)cn3)CC2)c2ccccc21 | 7.28 |  |  |  |  |  |  |  |  |
| O=C(O)c1ccc2c(c1)C(=O)OC21CCN(c2ccc(-c3nc4cc(C(F)(F)F)ccc4[nH]3)cn2)CC1 |  |  | < 10 |  |  |  |  | 6.25 |  |
| Cc1cccc(Cl)c1NC(=O)N1CCN(c2ccc(-c3nc4cc(C(F)(F)F)ccc4[nH]3)cn2)CC1 | 7.05 |  |  |  |  |  |  |  |  |
| O=S1(=O)CCC(N2CCN(c3ccc(-c4nc5cc(C(F)(F)F)ccc5[nH]4)cn3)CC2)C1 (stereo unspecified) | 6.88 |  |  |  |  |  |  |  |  |
| CS(=O)(=O)C1CCN(c2ccc(-c3nc4cc(C(F)(F)F)ccc4[nH]3)cn2)CC1 | 6.67 |  |  |  |  |  |  |  |  |
| Clc1ccc2[nH]c(-c3ccc(N4CCC5(CC4)OCc4ccccc45)nc3)nc2c1 | 6.86 |  |  |  |  |  |  |  |  |
| O=C(O)CC1CCC2(CC1)CCN(c1ccc(-c3nc4cc(C(F)(F)F)ccc4[nH]3)cn1)CC2 | 8.22 | 4.97 | < 4 | 5.19 | < 4.52 | 1.76 | 45 (≈ 21.3 µg/mL) |  |  |
| O=C1OC2(CCN(c3ccc(-c4nc5cc(C(F)(F)F)ccc5[nH]4)cn3)CC2)CN1c1ccccc1 | 5.85 |  |  |  |  |  |  |  |  |
| O=C(O)CN1CCC2(CC1)CCN(c1ccc(-c3nc4cc(C(F)(F)F)ccc4[nH]3)cn1)CC2 | < 5.00 | < 4.30 | 207 (≈ 98 µg/mL) | < 4.30 | < 4.52 | 1.38 | 168 (≈ 79.5 µg/mL) | 5.32 |  |
| O=C(O)CC1CCC2(CCN(c3ccc(-c4nc5cc(C(F)(F)F)ccc5[nH]4)cn3)CC2)OC1 (racemic) |  | < 4.30 | 179 (≈ 84.9 µg/mL) | < 4.30 | < 4.52 | 1.52 | 172 (≈ 81.6 µg/mL) | 5.11 |  |
| O=C(O)CC1CCOC2(CCN(c3ccc(-c4nc5cc(C(F)(F)F)ccc5[nH]4)cn3)CC2)C1 (racemic) |  | < 4.30 | 185 (≈ 87.8 µg/mL) | < 4.30 | < 4.52 | 1.43 | 184 (≈ 87.3 µg/mL) |  |  |
| O=C(O)CC1CCC2(CCN(c3ccc(-c4nc5cc(C(F)(F)F)ccc5[nH]4)cn3)CC2)O1 (racemic) |  | < 4.30 | 170 (≈ 78.3 µg/mL) | < 4.30 | < 4.52 | 1.55 | 149 (≈ 68.6 µg/mL) | < 4.22 | CL (Rattus norvegicus): 34.2 mL/min/kg |
| O=C(O)CC1COC2(CCN(c3ccc(-c4nc5cc(C(F)(F)F)ccc5[nH]4)cn3)CC2)C1 (racemic) |  | < 4.30 | 170 (≈ 78.3 µg/mL) | < 4.30 | < 4.52 | 1.51 | 182 (≈ 83.8 µg/mL) |  | pIC50 [9]: 6.75 |
| O=C(O)CC1CCC2(CCN(c3ccc(-c4nc5cc(C(F)(F)F)ccc5[nH]4)cn3)CC2)OC1 (single isomer, unassigned; ent B) |  | 4.59 |  | 4.88 | < 4.52 |  |  | 5.92 |  |
| O=C(O)CC1CCC2(CCN(c3ccc(-c4nc5cc(C(F)(F)F)ccc5[nH]4)cn3)CC2)O1 (single isomer, unassigned; form 1) |  |  |  |  |  |  |  | 4.80 | solubility [2]: > 200 µM; logD [4]: 1.52; solubility [7]: 190 µM (≈ 87.5 µg/mL) |
| O=C(O)CC1CCC2(CCN(c3ccc(-c4nc5cc(C(F)(F)F)ccc5[nH]4)cn3)CC2)O1 (single isomer, unassigned; form 2) |  | 4.40 |  | < 4.30 | < 4.52 |  |  | 4.76 | solubility [2]: 163 µM (≈ 75.1 µg/mL); logD [4]: 1.58; solubility [7]: 147 µM (≈ 67.7 µg/mL) |
| O=C(O)CC1CCC2(CCN(c3ccc(-c4nc5cc(C(F)(F)F)ccc5[nH]4)cn3)CC2)OC1 (stereo in doubt) |  | 4.69 |  | 4.71 | < 4.52 |  |  | 6.10 |  |
| O=C(O)CC1CCOC2(CCN(c3ccc(-c4nc5cc(C(F)(F)F)ccc5[nH]4)cn3)CC2)C1 (stereo in doubt; form 1) |  | 4.34 |  | < 4.30 | < 4.52 |  |  |  | solubility [2]: 173 µM (≈ 82.1 µg/mL); logD [4]: 1.48; solubility [7]: 168 µM (≈ 79.7 µg/mL) |
| O=C(O)CC1CCOC2(CCN(c3ccc(-c4nc5cc(C(F)(F)F)ccc5[nH]4)cn3)CC2)C1 (stereo in doubt; form 2) |  | 4.45 |  | < 4.30 | < 4.52 |  |  |  | solubility [2]: 169 µM (≈ 80.2 µg/mL); logD [4]: 1.47; solubility [7]: 174 µM (≈ 82.6 µg/mL) |

From ChEMBL document CHEMBL4049398, “Microscale High-Throughput Experimentation as an Enabling Technology in Drug Discovery: Application in the Discovery of (Piperidinyl)pyridinyl-1H-benzimidazole Diacylglycerol Acyltransferase 1 Inhibitors” (J Med Chem, 2017)
